The structures appear in SMILES notation.

The test system of one assay is HSV-1. In words: Plaque reduction assay, herpes simplex virus type 1. The class given is cell-based, Herpes simplex virus (HSV). Set-up: unit not given here. Particulars: vero cells, 48-hour incubation; concentration reducing number of plaques by 50%. The method, then:
(§1) Herpes simplex virus (HSV) strains wars grown and titered at 37°C in vero cells (African Green Monkey Kidney cells) and used for virus work before the tenth passage.
(§2) Cells were grown and maintained in Earle's Minimum Essential Medium (EMEM), Gibco Laboratories, supplemented with 0.75% sodium bicarbonate, 2mM 1-glutamine, Pen-strep. and 5-10% fetal calf serum.
(§3) The titer of HSV strains is determined by a plaque titration method (Roizman and Roane,"Virology," 15:75-79, 1961). Tissue culture 24-well petri dishes are seeded with cells and used for assays when approximately 75% monolayer. Volumes (0.1ml) of logarithmic dilutions of the virus strain are inoculated onto each of triplicate wells, and absorbed for one hour with intermittent shaking. The inoculum thereafter is removed, and 1 ml of 5-10% EMEM containing 0.3% human immune serum globulin is added. After a 48 hr. incubation period at 37°C in a 5% CO2 atmosphere, the overlay medium is removed and the cell sheets stained with Giemsa stain. The number of plaques is counted, the triplicate is averaged, and the number of plaque-forming units per ml is calculated.
(§4) The compounds are tested for activity against the herpes simplex strains using a stock solution of each compound freshly prepared. Appropriate dilution of each compound are made in 10% EMEM before usage. The antiviral efficacy of each compound is determined using the plaque reduction assay described above. Briefly, tissue culture 24-well plates, with approximately 75% cell monolayer are inoculated with approximately 50 plaque forming units of HSV per 0.1 ml, and the virus adsorbed for 1 hr, with intermittent shaking. After removal of the inoculum, 1 ml of 10% EMEM containing two-fold dilutions of the appropriate drug are added in triplicates. Triplicate wells/plate receives no drug and are used as a virus control. After a 48-hour incubation period, at 37°C in a 5% CO2 atmosphere, the overlay medium is removed, the cells stained as described above, and plaques are counted. The counts of triplicate wells are averaged, and the number of plaques in the presence of each drug dilution are calculated.
(§5) The antiviral potency of the drug is determined by ID50, the drug concentration necessary to reduce the number of plaques by 50% of those in the virus control cultures.
(In general: In a plaque reduction assay, fewer plaques than in the control indicate reduced infectivity or spread.)
As to `CCOP(=O)(O)COCCn1cnc2c(=O)[nH]c(N)nc21` [Ex. 7, 9-(2-(Monoethylphosphonomethoxy)ethyl)guanine], the “Plaque Reduction HSV-1 ID50” value amounted to 4.8.
On the same count and under the same terms, the value for `COP(=O)(O)COCCn1cnc2c(=O)[nH]c(N)nc21` [Ex. 32] was 1.6.
For `CC(COCP(=O)(O)O)n1cnc2c(=O)[nH]c(N)nc21` (centres unmarked) [Ex. 13], the “Plaque Reduction HSV-1 ID50” value is recorded as 3.0.
`Nc1ncnc2c1ncn2C[C@@H](CO)OCP(=O)(O)O` [(S)-9-(3-Hydroxy-2-phosphonomethoxy)propyl adenine, reference compound]: the “Plaque Reduction HSV-1 ID50” value worked out at 13.8.
Regarding `Nc1nc2c(ncn2COCCO)c(=O)[nH]1` [Acyclovir, reference compound], the “Plaque Reduction HSV-1 ID50” value came to 0.3.
On the same count and under the same terms, under `CCCOP(=O)(O)COCCn1cnc2c(=O)[nH]c(N)nc21` [Ex. 33] stands 9.7; under `CC(C)OP(=O)(O)COCCn1cnc2c(=O)[nH]c(N)nc21` [Ex. 34], 74.9.

In the next assay the test system is Human cytomegalovirus (HCMV) strain (AD169). The assay can be described thus: Plaque reduction assay against human cytomegalovirus. The class given is cell-based. Set-up: unit not given here. Conditions: HCMV strain AD169 in MRC-5 cells. As for the experimental part: as §3, §4, §5
Human cytomegalovirus (HCMV) strain (AD169) was grown and titered at 37° in human embryonic lung (diploid) cells, MRC-5, and used for the antiviral assay.
The compounds are tested for activity against the HCMV using the procedure for the plaque reduction assay described above.
`CCOP(=O)(O)COCCn1cnc2c(=O)[nH]c(N)nc21` [Ex. 7, 9-(2-(Monoethylphosphonomethoxy)ethyl)guanine]: the “CMV ID50” value is reported as 0.23.
`Nc1nc2c(ncn2COC(CO)CO)c(=O)[nH]1` [9-(1,3-Dihydroxypropoxymethyl)guanine, reference compound]: the “CMV ID50” value is on record as 1.2.
Same read-out and setting: under `Nc1ncc2ncn(CCOCP(=O)(O)O)c2n1` [Ex. 25] stands below 0.032; under `Nc1nc2c(ncn2CCCOCP(=O)(O)O)c(=O)[nH]1` [Ex. 18], 6.0; under `Nc1ncnc2c1ncn2C[C@@H](CO)OCP(=O)(O)O` [(S)-9-(3-Hydroxy-2-phosphonomethoxy)propyl adenine, reference compound], 0.13.

For another assay, the system named is Murine leukemia virus (MuLV). The assay can be described thus: UV-XC plaque assay against murine retroviruses. Conditions: MuLV in SC-1 cells. Set-up: unit not given here. The class given is cell-based. The method, then: The compounds wore evaluated for antiviral activity against Murine leukemia virus (MuLV) strains using the UV-XC plaque assay (Rowe, et al., "Virology," 42:1136, 1970).
The MuLV strains were grown in feral mouse cells (SC-1) and used for antiviral tests using the UV-XC plaque assay. Briefly, SC-1 coils are grown as monolayers in 4-well tissue culture plates and inoculated with approximately 50-100 plaque forming units of MuLV in 0.5 ml of 5% EMEM containing 20 ug/ml DEAE/Dextran. After 1 hr. adsorbtion, the inoculum is removed and 5 ml of 5% EMEM containing three-fold dilutions of the appropriate drug are added. Five days later, the cultures are UV-irradiated with an ultraviolet lamp and rat XC sarcoma cells are added to the cultures. Three-four days after UV-irradiation, the cell cultures are stained with Giemsa stain and the plaques are enumerated. Antiviral activity is expressed in terms of the reduction in the mean number of UV-XC plaques counted in the drug treated, virus-infected cultures compared with mean number of plaques counted in untreated, virus-infected control cultures. The ID50 for each drug was determined.
On to `CCOP(=O)(O)COCCn1cnc2c(=O)[nH]c(N)nc21` [Ex. 7, 9-(2-(Monoethylphosphonomethoxy)ethyl)guanine], for which the “Muly ID50” value is recorded as 0.56.
Same read-out and setting: under `Cc1cn([C@H]2C[C@H](N=[N+]=[N-])[C@@H](CO)O2)c(=O)[nH]c1=O` [3'-Azido-3'-deoxythymidine, reference compound] stands 0.0001.
Still for that read-out and setting: under `COP(=O)(O)COCCn1cnc2c(=O)[nH]c(N)nc21` [Ex. 32] stands 0.05; under `Nc1nc2c(ncn2CCCOCP(=O)(O)O)c(=O)[nH]1` [Ex. 18], 0.04.
The same measure, in the same setting: the value for `Nc1ncnc2c1ncn2C[C@@H](CO)OCP(=O)(O)O` [(S)-9-(3-Hydroxy-2-phosphonomethoxy)propyl adenine, reference compound] was 2.0; that for `CC(C)OP(=O)(O)COCCn1cnc2c(=O)[nH]c(N)nc21` [Ex. 34] was 1.72.

For a further assay, the system named is HSV-1. In words: Colorimetric dye-uptake assay (neutral red), herpes simplex virus type 1. In kind it is cell-based, Herpes simplex virus (HSV). Set-up: unit not given here. Particulars: vero cells, 48 hr incubation, neutral red stain; ID50 by linear regression. As for the experimental part:
as §1, §2
(§6) For the primary screening, a colorimetric dye-uptake assay (McLaren, C., et al., "Antiviral Research," 3:323, 1983) is used employing rapidly growing vero cells. Briefly, cells, compound and virus dilutions are added onto 96-well tissue culture plates simultaneously using the cells, viruses and medium described above. After 48 hr. incubation at 37°C in 5% CO2 atmosphere, the overlay medium is removed and the cell sheets are stained with 0.04% neutral red solution. After 30 min. incubation at 37°C, the cell sheets are washed and the stain is eluted with 0.05 M sodium monophosphate in 47% ethanol and the O.D. is determined at 540 nm wave length.
(§7) The 50% inhibitory dose (ID50) for each drug is determined by linear regression analysis.
Turning to `CCOP(=O)(O)COCCn1cnc2c(=O)[nH]c(N)nc21` [Ex. 7, 9-(2-(Monoethylphosphonomethoxy)ethyl)guanine], the “Dye-Uptake HSV-1 ID50” value stood at 12.
On the same count and under the same terms, the value for `COP(=O)(O)COCCn1cnc2c(=O)[nH]c(N)nc21` [Ex. 32] was 1.5; that for `CC(COCP(=O)(O)O)n1cnc2c(=O)[nH]c(N)nc21` (centres unmarked) [Ex. 13] was 8.7; that for `Nc1ncnc2c1ncn2C[C@@H](CO)OCP(=O)(O)O` [(S)-9-(3-Hydroxy-2-phosphonomethoxy)propyl adenine, reference compound] was 15.1.
On the same count and under the same terms, the value for `Nc1nc2c(ncn2COCCO)c(=O)[nH]1` [Acyclovir, reference compound] was 0.5.

The subject of a further assay is HSV-2. The assay can be described thus: Colorimetric dye-uptake assay (neutral red), herpes simplex virus type 2. In kind it is cell-based, Herpes simplex virus (HSV). Set-up: unit not given here. Conditions: vero cells, 48 hr incubation, neutral red stain; ID50 by linear regression. As for the experimental part: as §1, §2, §6, §7
For the compound `CCOP(=O)(O)COCCn1cnc2c(=O)[nH]c(N)nc21` [Ex. 7, 9-(2-(Monoethylphosphonomethoxy)ethyl)guanine], the “Dye-Uptake HSV-2 ID50” value is reported as 8.
`COP(=O)(O)COCCn1cnc2c(=O)[nH]c(N)nc21` [Ex. 32]: the “Dye-Uptake HSV-2 ID50” value is 3.8.
Turning to `CC(COCP(=O)(O)O)n1cnc2c(=O)[nH]c(N)nc21` (centres unmarked) [Ex. 13], the “Dye-Uptake HSV-2 ID50” value came out at 10.4.
`Nc1ncnc2c1ncn2C[C@@H](CO)OCP(=O)(O)O` [(S)-9-(3-Hydroxy-2-phosphonomethoxy)propyl adenine, reference compound]: the “Dye-Uptake HSV-2 ID50” value is on record as above 25.
Still for that read-out and setting: under `Nc1nc2c(ncn2COCCO)c(=O)[nH]1` [Acyclovir, reference compound] stands 1.0.

The next assay concerns HSV-2. The assay can be described thus: Plaque reduction assay, herpes simplex virus type 2. The class given is cell-based, Herpes simplex virus (HSV). Conditions: vero cells, 48-hour incubation; concentration reducing number of plaques by 50%. Set-up: unit not given here. The method, then: as §1, §2, §3, §4, §5
For the compound `CCOP(=O)(O)COCCn1cnc2c(=O)[nH]c(N)nc21` [Ex. 7, 9-(2-(Monoethylphosphonomethoxy)ethyl)guanine], the “Plaque Reduction HSV-2 ID50” value was 5.1.
Same read-out and setting: under `COP(=O)(O)COCCn1cnc2c(=O)[nH]c(N)nc21` [Ex. 32] stands 1.2.
Same read-out and setting: under `CC(COCP(=O)(O)O)n1cnc2c(=O)[nH]c(N)nc21` (centres unmarked) [Ex. 13] stands 3.3.
Same read-out and setting: the value for `Nc1ncnc2c1ncn2C[C@@H](CO)OCP(=O)(O)O` [(S)-9-(3-Hydroxy-2-phosphonomethoxy)propyl adenine, reference compound] was 35.8; that for `Nc1nc2c(ncn2COCCO)c(=O)[nH]1` [Acyclovir, reference compound] was 1.5.
As for `CCCOP(=O)(O)COCCn1cnc2c(=O)[nH]c(N)nc21` [Ex. 33], the “Plaque Reduction HSV-2 ID50” value worked out at 9.9.
On the same count and under the same terms, the value for `CC(C)OP(=O)(O)COCCn1cnc2c(=O)[nH]c(N)nc21` [Ex. 34] was 34.8.

Source of the values: patent EP0269947B2, “Antiviral phosphonomethoxyalkylene purine and pyrimidine derivatives” (priority 1986, dated 1988).
